Test results reported in ChEMBL document CHEMBL3044631, “Synthesis of 2-[4,5-dimethyl-1-(phenylamino)-1H-imidazol-2-ylthio]-N-(thiazole-2-yl)acetamide derivatives and their anticancer activities” (2013).

What was measured:
Type in all cases: functional
[1] = test system: UACC-257; test: Anticancer activity against Homo sapiens (human) UACC257 cells assessed as cell growth promotion at 10 uM after 48 hr by SRB assay
[2] = test system: SK-MEL-5; test: Anticancer activity against Homo sapiens (human) SK-MEL-5 cells assessed as cell growth promotion at 10 uM after 48 hr by SRB assay
[3] = test system: BT-549; test: Anticancer activity against Homo sapiens (human) BT549 cells assessed as cell growth promotion at 10 uM after 48 hr by SRB assay
[4] = test system: PC-3; test: Anticancer activity against Homo sapiens (human) PC3 cells assessed as cell growth promotion at 10 uM after 48 hr by SRB assay
[5] = test system: UO-31; test: Anticancer activity against Homo sapiens (human) UO31 cells assessed as cell growth promotion at 10 uM after 48 hr by SRB assay
[6] = test system: RXF 393; test: Anticancer activity against Homo sapiens (human) RXF393 cells assessed as cell growth promotion at 10 uM after 48 hr by SRB assay
[7] = test system: 786-0; test: Anticancer activity against Homo sapiens (human) 786-0 cells assessed as cell growth promotion at 10 uM after 48 hr by SRB assay
[8] = test system: NCI/ADR-RES; test: Anticancer activity against Homo sapiens (human) NCI/ADR-RES cells assessed as cell growth promotion at 10 uM after 48 hr by SRB assay
[9] = test system: OVCAR-4; test: Anticancer activity against Homo sapiens (human) OVCAR4 cells assessed as cell growth promotion at 10 uM after 48 hr by SRB assay
[10] = test system: SF-539; test: Anticancer activity against Homo sapiens (human) SF539 cells after 48 hr by SRB assay; conditions: SF-539, 48 h
[11] = test system: KM12; test: Anticancer activity against Homo sapiens (human) KM12 cells after 48 hr by SRB assay; conditions: KM12, 48 h
[12] = test system: HCT-116; test: Anticancer activity against Homo sapiens (human) HCT116 cells after 48 hr by SRB assay; conditions: HCT-116, 48 h
[13] = test system: COLO 205; test: Anticancer activity against Homo sapiens (human) COLO205 cells after 48 hr by SRB assay; conditions: COLO 205, 48 h
[14] = test system: NCI-H23; test: Anticancer activity against Homo sapiens (human) NCI-H23 cells after 48 hr by SRB assay; conditions: NCI-H23, 48 h
[15] = test system: K562; test: Anticancer activity against Homo sapiens (human) K562 cells after 48 hr by SRB assay; conditions: K562, 48 h
[16] = test system: MDA-MB-468; test: Anticancer activity against Homo sapiens (human) MDA-MB-468 cells assessed as cell growth promotion at 10 uM after 48 hr by SRB assay
[17] = test system: COLO 205; test: Anticancer activity against Homo sapiens (human) COLO205 cells assessed as cell growth promotion at 10 uM after 48 hr by SRB assay
[18] = test system: NCI-H322M; test: Anticancer activity against Homo sapiens (human) NCI-H322M cells assessed as cell growth promotion at 10 uM after 48 hr by SRB assay
[19] = test system: NCI-H23; test: Anticancer activity against Homo sapiens (human) NCI-H23 cells assessed as cell growth promotion at 10 uM after 48 hr by SRB assay
[20] = test system: NCI-H226; test: Anticancer activity against Homo sapiens (human) NCI-H226 cells assessed as cell growth promotion at 10 uM after 48 hr by SRB assay
[21] = test system: HOP-92; test: Anticancer activity against Homo sapiens (human) HOP92 cells assessed as cell growth promotion at 10 uM after 48 hr by SRB assay
[22] = test system: HOP-62; test: Anticancer activity against Homo sapiens (human) HOP62 cells assessed as cell growth promotion at 10 uM after 48 hr by SRB assay
[23] = test system: SK-MEL-28; test: Anticancer activity against Homo sapiens (human) SK-MEL-28 cells assessed as cell growth promotion at 10 uM after 48 hr by SRB assay
[24] = test system: MDA-MB-435; test: Anticancer activity against Homo sapiens (human) MDA-MB-435 cells assessed as cell growth promotion at 10 uM after 48 hr by SRB assay
[25] = test system: T47D; test: Anticancer activity against Homo sapiens (human) T47D cells after 48 hr by SRB assay
[26] = test system: NCI/ADR-RES; test: Anticancer activity against Homo sapiens (human) NCI/ADR-RES cells after 48 hr by SRB assay
[27] = test system: OVCAR-3; test: Anticancer activity against Homo sapiens (human) OVCAR3 cells after 48 hr by SRB assay; conditions: OVCAR-3, 48 h
[28] = test system: IGROV-1; test: Anticancer activity against Homo sapiens (human) IGROV1 cells after 48 hr by SRB assay; conditions: IGROV-1, 48 h
[29] = test system: UACC-257; test: Anticancer activity against Homo sapiens (human) UACC257 cells after 48 hr by SRB assay; conditions: UACC-257, 48 h
[30] = test system: SK-MEL-2; test: Anticancer activity against Homo sapiens (human) SK-MEL-2 cells after 48 hr by SRB assay; conditions: SK-MEL-2, 48 h
[31] = test system: M14; test: Anticancer activity against Homo sapiens (human) M14 cells after 48 hr by SRB assay; conditions: M14, 48 h
[32] = test system: Malme-3M; test: Anticancer activity against Homo sapiens (human) MALME-3M cells after 48 hr by SRB assay
[33] = test system: SNB-19; test: Anticancer activity against Homo sapiens (human) SNB19 cells after 48 hr by SRB assay; conditions: SNB-19, 48 h
[34] = test system: SNB-75; test: Anticancer activity against Homo sapiens (human) SNB75 cells after 48 hr by SRB assay; conditions: SNB-75, 48 h
[35] = test system: 786-0; test: Anticancer activity against Homo sapiens (human) 786-0 cells after 48 hr by SRB assay; conditions: 786-0, 48 h
[36] = read-out: LC50 (the source's name)

`Cc1ccc(Nn2c(SCC(=O)Nc3nc(-c4ccccc4)cs3)nc(C)c2C)cc1` was tested, and the Activity [1] was 54.08%, the Activity [2] was 66.75% and the Activity [3] was 63.51%. It also gave an Activity [4] of 71.8%, an Activity [5] of 51.58% and an Activity [6] of 61.47%. For the same compound, the Activity [7] was 82.27%, the Activity [8] was 34.4% and the Activity [9] was 25.36%. For the same compound, the GI50 [10] was 4.68 µM, the LC50 (concentration killing 50% of cells) [10] was over 100 µM and the TGI [10] was 35.2 µM. The GI50 [11] was 4.13 µM, the LC50 (concentration killing 50% of cells) [11] was over 100 µM and the TGI [11] was 19.1 µM. For the same compound, the GI50 [12] was 2.82 µM, the LC50 [12] was over 100 µM and the TGI [12] was 26.5 µM. It also gave a GI50 [13] of 3.98 µM, a TGI [13] of 34.4 µM and a CC50 [13, 36] of over 100 µM. It also gave a GI50 [14] of 3.42 µM, a TGI [14] of over 100 µM and a CC50 [14, 36] of over 100 µM. It also gave a GI50 [15] of 3.62 µM, a TGI [15] of over 100 µM and a CC50 [15, 36] of over 100 µM. The Activity [16] was 17.71%, the Activity [17] was 32.48% and the Activity [18] was 96.01%. The Activity [19] was 39.38%, the Activity [20] was 46.34% and the Activity [21] was 59.94%. For the same compound, the Activity [22] was 67.17%, the Activity [23] was 77.24% and the Activity [24] was 76.71%. It also gave a GI50 [25] of 1.85 µM, a TGI [25] of 10.4 µM and a CC50 [25, 36] of over 100 µM. It also gave a GI50 [26] of 3.04 µM, an LC50 [26] of over 100 µM and a TGI [26] of 22.2 µM. For the same compound, the GI50 [27] was 8.24 µM, the LC50 (50% lethal concentration) [27] was over 100 µM and the TGI [27] was over 100 µM. It also gave a GI50 [28] of 4.59 µM, an LC50 (concentration killing 50% of cells) [28] of over 100 µM and a TGI [28] of over 100 µM. The GI50 [29] was 2.12 µM, the LC50 [29] was over 100 µM and the TGI [29] was 9.29 µM. For the same compound, the GI50 [30] was 7.58 µM, the LC50 (concentration killing 50% of cells) [30] was over 100 µM and the TGI [30] was 35.3 µM. For the same compound, the GI50 [31] was 3.7 µM, the LC50 [31] was over 100 µM and the TGI [31] was 48.6 µM. For the same compound, the GI50 [32] was 2.48 µM, the TGI [32] was 13.6 µM and the CC50 [32, 36] was over 100 µM. The GI50 [33] was 7.49 µM, the LC50 [33] was over 100 µM and the TGI [33] was over 100 µM. The GI50 [34] was 2.81 µM, the LC50 [34] was over 100 µM and the TGI [34] was over 100 µM. For the same compound, the GI50 [35] was 4.41 µM, the LC50 (lethal concentration 50) [35] was over 100 µM and the TGI [35] was over 100 µM.
